Source: patent US7829572B2 (Pfizer Inc, priority 2006, dated 2010)

target: T1, calcium receptor (CasR) (Homo sapiens, UniProt P41180); experiment: FLIPR Assay for Evaluating the Potency and Selectivity of Test Compounds; type: cell-based; conditions: HEK 293 cells expressing CasR; 30 minutes pre-incubation; stimulation by 1.7 mM Ca2+; read 42 seconds after stimulation
T1 construct: expressed in transfected cells; host or cells: HEK 293
T1 sequence (P41180 20-1078): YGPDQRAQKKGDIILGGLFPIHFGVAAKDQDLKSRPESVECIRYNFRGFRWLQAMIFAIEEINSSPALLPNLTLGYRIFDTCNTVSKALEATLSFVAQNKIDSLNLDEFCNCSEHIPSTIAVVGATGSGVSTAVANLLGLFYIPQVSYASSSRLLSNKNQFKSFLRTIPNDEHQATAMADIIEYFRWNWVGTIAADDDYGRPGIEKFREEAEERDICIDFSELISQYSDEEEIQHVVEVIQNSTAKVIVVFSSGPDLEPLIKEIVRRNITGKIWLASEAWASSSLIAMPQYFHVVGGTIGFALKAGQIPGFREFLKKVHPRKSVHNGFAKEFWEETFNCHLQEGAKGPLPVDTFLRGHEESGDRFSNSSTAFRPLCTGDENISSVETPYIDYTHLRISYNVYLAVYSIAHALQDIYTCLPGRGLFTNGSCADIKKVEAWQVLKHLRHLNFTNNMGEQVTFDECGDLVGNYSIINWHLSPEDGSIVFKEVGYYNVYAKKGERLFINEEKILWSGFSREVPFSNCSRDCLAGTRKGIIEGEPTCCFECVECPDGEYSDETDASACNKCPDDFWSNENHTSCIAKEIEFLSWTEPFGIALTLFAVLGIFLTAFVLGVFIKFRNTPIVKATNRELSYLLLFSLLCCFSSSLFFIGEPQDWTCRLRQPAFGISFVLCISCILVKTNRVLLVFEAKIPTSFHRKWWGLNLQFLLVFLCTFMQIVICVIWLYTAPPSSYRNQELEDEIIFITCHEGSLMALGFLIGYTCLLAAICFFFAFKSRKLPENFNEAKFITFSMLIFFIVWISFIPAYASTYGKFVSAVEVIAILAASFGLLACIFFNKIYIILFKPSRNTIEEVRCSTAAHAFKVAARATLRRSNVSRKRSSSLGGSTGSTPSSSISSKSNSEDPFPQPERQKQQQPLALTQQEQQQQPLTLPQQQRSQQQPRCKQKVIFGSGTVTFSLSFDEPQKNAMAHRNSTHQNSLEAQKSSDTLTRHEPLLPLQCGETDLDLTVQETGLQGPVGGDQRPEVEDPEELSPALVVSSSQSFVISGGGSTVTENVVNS
Source text: FLIPR Assay for Evaluating the Potency and Selectivity of Test Compounds
Human kidney cell (HEK 293) expressing the calcium receptor (CasR) are used to detect antagonists of the receptor using Fluorometric imaging plate reader (FLIPR, Molecular Devices, Sunnyvale Calif.). Receptor activation by extracellular calcium results in the release of calcium from intracellular stores into the cytosol. A fluorescent indicator (Fluo-4) is internalized by the cells from growth media and interacts with calcium released into the cytosol to provide a means of quantifying intracellular Ca^2+ levels and receptor agonism/antagonism. Fluorescence intensity is detected by the FLIPR CCD camera and traced as a function of time. Potential antagonists are identified by their ability to decrease this fluorescent response.
Prior to the addition of test compound cells are washed with a 10 mM HEPES buffer solution. The test compound, for example the compound of Example 1, is added at various doses (from 1 µM to 3 nM) and pre-incubated with cells for 30 minutes followed by stimulation of the CasR by the addition of 1.7 mM Ca^2+. IC50 values are based on the ability of the cells to inhibit the Ca^2+ induced increase in intracellular Ca^2+. Fluorescence signal is read 42 seconds after the stimulation of the CasR by the addition of 1.7 mM Ca^2+.
The following table provides FLIPR IC50 data for the specified Examples. The IC50s are reported as micromolar concentration with n being the number of times the particular compound was assayed.

IC50 | Structure (SMILES)
50 nM | CC(Cc1ccccc1F)n1c(-c2ncccc2O)nc2ccnc(C(F)(F)F)c2c1=O (single isomer, unassigned) [Example 6a, 2-(3-Hydroxy-pyridin-2-yl)-3-(1-methyl-2-(2-fluorophenyl)ethyl)-5-trifluoromethyl-3H-pyrido[4,3-d]pyrimidin-4-one]
1400 nM | CC(Cc1ccccc1F)n1c(-c2ncccc2O)nc2ccnc(C(F)(F)F)c2c1=O (single isomer, unassigned) [Example 6b, 2-(3-Hydroxy-pyridin-2-yl)-3-(1-methyl-2-(2-fluorophenyl)ethyl)-5-trifluoromethyl-3H-pyrido[4,3-d]pyrimidin-4-one]
50 nM | O=c1c2c(C(F)(F)F)nccc2nc(-c2ccccc2O)n1CCc1ccccc1 [Example 1, 2-(2-Hydroxy-phenyl)-3-phenethyl-5-trifluoromethyl-3H-pyrido[4,3-d]pyri-midin-4-one]
620 nM | O=c1c2c(C(F)(F)F)nccc2nc(-c2cccc(F)c2O)n1CCc1ccccc1 [Example 2, 2-(3-Fluoro-2-hydroxy-phenyl)-3-phenethyl-5-trifluoromethyl-3H-pyrido[4,3-d]pyrimidin-4-one]
390 nM | O=c1c2c(C(F)(F)F)nccc2nc(-c2ncccc2O)n1CCc1ccccc1 [Example 3, 2-(3-Hydroxy-pyridin-2-yl)-3-phenethyl-5-trifluoromethyl-3H-pyrido[4,3-d]pyrimidin-4-one]
60 nM | C[C@H](Cc1ccccc1)n1c(-c2ccccc2O)nc2ccnc(C(F)(F)F)c2c1=O [Example 4a, (R)-2-(2-Hydroxy-phenyl)-3-(1-methyl-2-phenyl-ethyl)-5-trifluoromethyl-3H-pyrido[4,3-d]pyrimidin-4-one]
290 nM | O=c1c2c(C(F)(F)F)nccc2nc(-c2cccc(F)c2O)n1CCc1ccccc1F [Example 9, 2-(3-Fluoro-2-hydroxy-phenyl)-3-[2-(2-fluoro-phenyl)-ethyl]-5-trifluoromethyl-3H-pyrido[4,3-d]pyrimidin-4-one]
120 nM | Cc1cc2nc(-c3ccccc3O)n(CCc3ccccc3)c(=O)c2c(C(F)(F)F)n1 [Example 10, 2-(2-Hydroxy-phenyl)-7-methyl-3-(phenyl-ethyl)-5-trifluoromethyl-3H-pyrido[4,3-d]pyrimidin-4-one]
250 nM | O=c1c2c(C(F)(F)F)nccc2nc(-c2ncccc2O)n1CCc1ccccc1F [Example 12, 3-[2-(2-Fluoro-phenyl)-ethyl-]2-(3-hydroxy-pyridin-2-yl)-5-trifluoromethyl-3H-pyrido[4,3-d]pyrimidin-4-one]
70 nM | O=c1c2c(C(F)(F)F)nccc2nc(-c2ncccc2O)n1CCc1ccc(F)c(F)c1 [Example 13, 3-[2-(3,4-Difluoro-phenyl)-ethyl]-2-(3-hydroxy-pyridin-2-yl)-5-trifluoromethyl-3H-pyrido[4,3-d]pyrimidin-4-one]
160 nM | O=c1c2c(C(F)(F)F)nccc2nc(-c2ccccc2O)n1CCc1ccc(F)c(F)c1 [Example 15]
10800 nM | CNc1nccc2nc(-c3ccccc3O)n(CCc3ccccc3)c(=O)c12 [Example 16, 2-(2-Hydroxy-phenyl)-5-methylamino-3-phenethyl-3H-pyrido[4,3-d]pyrimidin-4-one]
12300 nM | O=c1c2c(N3CCCC3)nccc2nc(-c2ccccc2O)n1CCc1ccccc1 [Example 18, 2-(2-Hydroxy-phenyl)-3-phenethyl-5-pyrrolidin-1-yl-3H-pyrido[4,3-d]pyrimidin-4-one]
> 100000 nM | CN1CCN(c2nccc3nc(-c4ccccc4O)n(CCc4ccccc4)c(=O)c23)CC1 [Example 19, 2-(2-Hydroxy-phenyl)-5-(4-methyl-piperazin-1-yl)-3-phenethyl-3H-pyrido[4,3-d]pyrimidin-4-one]
> 100000 nM | O=c1c2c(N3CCNCC3)nccc2nc(-c2ccccc2O)n1CCc1ccccc1 [Example 20, 2-(2-Hydroxy-phenyl)-3-phenethyl-5-piperazin-1-yl-3H-pyrido[4,3-d]pyrimidin-4-one]
13700 nM | O=c1c2c(N3CCC3)nccc2nc(-c2ccccc2O)n1CCc1ccccc1 [Example 23, 5-Azetidin-1-yl-2-(2-hydroxy-phenyl)-3-phenethyl-3H-pyrido[4,3-]d-pyrimidin-4-one]
2600 nM | O=c1c2c(-c3ccccc3)nccc2nc(-c2ccccc2O)n1CCc1ccccc1 [Example 24, 2-(2-Hydroxy-phenyl)-3-phenethyl-5-phenyl-3H-pyrido[4,3-d]pyrimidin-4-one]
3010 nM | O=c1c2c(Cc3ccccc3)nccc2nc(-c2ccccc2O)n1CCc1ccccc1 [Example 25, 5-Benzyl-2-(2-hydroxy-phenyl)-3-phenethyl-3H-pyrido[4,3-d]pyrimidin-4-one]

Second part, the compound before the results:

Structure (SMILES) | IC50
CC(Cc1ccccc1F)n1c(-c2ncccc2O)nc2ccnc(C(F)(F)F)c2c1=O (racemic) [Example 6, (R, S)-2-(3-Hydroxy-pyridin-2-yl)-3-(1-methyl-2-(2-fluorophenyl)ethyl)-5-trifluoromethyl-3H-pyrido[4,3-d]pyrimidin-4-one] | 50 nM
O=c1c2c(C(F)(F)F)nccc2nc(-c2ncccc2O)n1CCC1CCCCO1 (racemic) [Example 49, (R, S)-2-(3-hydroxypyridin-2-yl)-3-(2-(tetrahydro-2H-pyran-2-yl)ethyl)-5-(trifluoromethyl)pyrido[4,3-d]pyrimidin-4(3H)-one] | 480 nM
C[C@@H](Cc1ccccc1)n1c(-c2ccccc2O)nc2ccnc(C(F)(F)F)c2c1=O [Example 4b, (S)-2-(2-Hydroxy-phenyl)-3-(1-methyl-2-phenyl-ethyl)-5-trifluoromethyl-3H-pyrido[4,3-d]pyrimidin-4-one] | 160 nM
C[C@H](Cc1ccccc1)n1c(-c2ncccc2O)nc2ccnc(C(F)(F)F)c2c1=O [Example 5, (R)-2-(3-Hydroxy-pyridin-2-yl)-3-(1-methyl-2-phenyl-ethyl)-5-trifluoromethyl-3H-pyrido[4,3-d]pyrimidin-4-one] | 20 nM
O=c1c2c(C(F)(F)F)nccc2nc(-c2ccccc2O)n1CCc1ccccc1F [Example 7] | 130 nM
O=c1c2c(C(F)(F)F)nccc2nc(-c2ccccc2O)n1CCc1cccc(F)c1 [Example 8] | 90 nM
O=c1c2c(C(F)(F)F)nccc2nc(-c2cccc(F)c2O)n1CCc1cccc(F)c1 [Example 11, 2-(3-Fluoro-2-hydroxy-phenyl)-3-[2-(3-fluoro-phenyl)-ethyl]-5-trifluoromethyl-3H-pyrido[4,3-d]pyrimidin-4-one] | 460 nM
O=c1c2c(C(F)(F)F)nccc2nc(-c2ncccc2O)n1CCc1ccc(F)cc1F [Example 14, 3-[2-(2,4-Difluoro-phenyl)-ethyl]-2-(3-hydroxy-pyridin-2-yl)-5-trifluoromethyl-3H-pyrido[4,3-d]pyrimidin-4-one] | 170 nM
CC(C)Nc1nccc2nc(-c3ccccc3O)n(CCc3ccccc3)c(=O)c12 [Example 17, 2-(2-Hydroxy-phenyl)-5-isopropylamino-3-phenethyl-3H-pyrido[4,3-d]pyrimidin-4-one] | 11000 nM
CN(C)c1nccc2nc(-c3ccccc3O)n(CCc3ccccc3)c(=O)c12 [Example 21, 5-Dimethylamino-2-(2-hydroxy-phenyl)-3-phenethyl-3H-pyrido[4,3-d]pyrimidin-4-one] | 13800 nM
O=c1c2c(N3CCOCC3)nccc2nc(-c2ccccc2O)n1CCc1ccccc1 [Example 22, 2-(2-Hydroxy-phenyl)-5-morpholin-4-yl-3-phenethyl-3H-pyrido[4,3-d]pyrimidin-4-one] | > 100000 nM
Cc1nccc2nc(-c3ccccc3O)n(CCc3ccccc3)c(=O)c12 [Example 26, 2-(2-Hydroxy-phenyl)-5-methyl-3-phenethyl-3H-pyrido[4,3-d]pyrimidi-4-one] | 2990 nM
